Measurements taken from patent US9056140B2, “Pharmaceutical compound” (priority 2007, dated 2015).

Tests used:
[1] = cited from earlier work
[2] = tested on: OVCAR-3 cells (ovarian ER positive cell line); assay: LDH release assay, cell survival of OVCAR-3 monolayers; assay type: cell-based, human; conditions: FIG. 2; raloxifene 1000 nM
Procedure: (§1) Cell survival (%) for each cell line is calculated according to a standard lactate dehydrogenase (LDH) release assay, where […] (0% survival) corresponds to cells treated with 50 μg/ml of Mitomycin C and […] (100%) survival corresponds to cells treated only with complete medium.
Finally, the NIH:OVCAR-3 cells (ATTC, catalogue no. HTB-161) was isolated from an ovary adenocarcinoma in a person and it expresses the estrogen receptor. The cell line was maintained in RPMI-1640 (Sigma) supplemented with 2 mM L-Gln (Sigma), 10 mM HEPES (Sigma), 1 mM Na-Pyr (Sigma), 0.01 mg/ml Bovine Insulin (Sigma), 100 IU Penicillin, 100 μg/ml Streptomycin (Sigma) and, as complete medium, 20% FCS (Sigma).
(§2) Cultures of MCF-7, HCC-1143 and OVCAR-3 were harvested at approximately 80% confluency by trypsinisation and after washing once in serum free medium, used to seed Flat bottom 96-well plates (Nunc) with 5×10^3 cells per well in 200 μl of complete medium. […]
(§3) The detection reagent from the CytoTox 96® Non-Radioactive Cytotoxicity Assay kit (Promega) was prepared as per manufacturer's instruction and 50 μl/well of detection reagent was added to all wells. After 30 minutes incubation in the dark at room temperature, the reaction was stopped by adding 50 μl/well of Stop solution to all wells and the absorbance of each well at 490 nm was established.

[3] = tested on: MCF-7 tumors; assay: In vivo anti-tumor activity, MCF-7 tumors in nude female mice; conditions: i.v. retro-orbital, days 36 and 43
Procedure: Animals received intravenous treatment via the retro-orbital route on days 36 and 43 post challenge.
Thirty (30) nude female mice (nu/nu), 6-8 weeks old, were challenged subcutaneously with 2×10^7 MCF-7 cells delivered in combination with Matrigel (Becton Dickinson) (200 μl total volume). Weight loss and tumor growth (calculated by taking two perpendicular measurements and applying the formula [Π*((min measurement)/2)^2*(maximum measurement)]) were monitored daily until the end of the study.
Statistical differences were calculated using non-parametric Mann-Whitney assays and considered significant if p<0.05.
Control animals received either PBS or the same doses of raloxine via the same route.
Due to the natural susceptibility of MCF-7 cells to estrogen production, daily tumor volume variation in the nude mice model used follows sinusoidal pattern with a period of approximately 4/5 days (see FIG. 3). The duration of this period correlates with the duration of the oestrus cycle in mice (i.e. 4/5 days). As a result, and in order to facilitate experimental analysis, FIG. 3 represents tumor volume variations for each experimental group both as daily changes and as moving averages (i.e. a trend line) for overlapping 5 day periods (i.e. overlap is 4 days per point).

[4] = tested on: HCC-1143 cells (ER-negative breast cancer cell line); assay: LDH release assay, cell survival of HCC-1143 monolayers; assay type: cell-based, human; conditions: FIG. 2; raloxifene 1000 nM
Procedure: as §1
The cell line was maintained in RPMI-1640 (Sigma) supplemented with 2 mM L-Gln (Sigma), 10 mM HEPES (Sigma), 1 mM Na-Pyr (Sigma), 100 IU Penicillin, 100 μg/ml Streptomycin (Sigma) and, as complete medium, 10% FCS (Sigma).
Cultures of MCF-7, HCC-1143 and OVCAR-3 were harvested at approximately 80% confluency by trypsinisation and after washing once in serum free medium, used to seed Flat bottom 96-well plates (Nunc) with 5×10^3 cells per well in 200 μl of complete medium.
Following 18 hours incubation at 37° C., the test compounds were removed and 200 μl/well of complete medium added to each well. […]
as §3

[5] = tested on: MCF-7 cells (ER-positive breast cancer cell line); assay: LDH release assay, cell survival of MCF-7 monolayers; assay type: cell-based, human; conditions: FIG. 2; saporin 500 nM, raloxifene 1000 nM, alone or as admixture
Procedure: as §1
The MCF-7 cell line (ECACC, catalogue no. 86012803) was isolated from a breast adenocarcinoma in a person and it expresses the estrogen receptor. The cell line was maintained in Minimum Essential Medium (Sigma) supplemented with 2 mM L-Gln (Sigma), 1% Non Essential amino acids (Sigma), 100 IU Penicillin, 100 μg/ml Streptomycin (Sigma) and, as complete medium, 10% Foetal Calf Serum (FCS) (Sigma).
as §2, §3

[6] = patients taking raloxifene daily

Compound | reducing the incidence of estrogen receptor positive breast cancer ([1]; clinical trial, vs tamoxifen) | fewer blood clots than women taking tamoxifen daily [1, 6] [%] | fewer uterine cancers than women taking tamoxifen daily [1, 6] [%] | lethal effect on OVCAR-3 cells [2] | tumor growth compared to PBS control group ([3]; peak blood concentration 0.1 nM conjugate or 0.1 ng/ml raloxifene) | tumor growth compared to PBS control group ([3]; peak blood concentration 0.2 nM conjugate or 0.2 ng/ml raloxifene) | tumor volume / tumor growth ([3]; peak blood concentration 0.4 nM conjugate or 0.4 ng/ml raloxifene, vs PBS) | lethal effect on HCC-1143 cells [4] | lethal effect on MCF-7 cells [5]
O=C(c1ccc(OCCN2CCCCC2)cc1)c1c(-c2ccc(O)cc2)sc2cc(O)ccc12 [Raloxifene] | as effective as tamoxifen | 29 | 36 | not against | did not result in any changes | did not result in any changes | maintenance or slight reduction of tumor size over time | not against | selective significant (p<0.05) effect
saporin | – | – | – | – | – | – | – | – | no significant (p>0.05) lethal effect
